# Where a SMILES comes first, the peptide text is derived from it. [ ]: non-standard residue; d: D form. Nle = CCCC[C@H](N)C(=O)O
# System: frog
# Assay: In vitro potency relative to alpha-melanotropin (alpha-MSH), in the frog (Rana pipiens) skin bioassay
# Assay type: functional
row,Compound,Relative potency
1,CC(=O)N[C@@H](CCCCN)C(N)=O,0
2,CC(=O)N[C@@H](Cc1c[nH]cn1)C(=O)N[C@@H](Cc1ccccc1)C(=O)N[C@@H](CCCN=C(N)N)C(=O)N[C@@H](Cc1c[nH]c2ccccc12)C(N)=O,5e-06
3,CCCC[C@H](NC(C)=O)C(=O)N[C@@H](CCC(=O)O)C(=O)N[C@@H](Cc1c[nH]cn1)C(=O)N[C@@H](Cc1ccccc1)C(=O)N[C@@H](CCCN=C(N)N)C(=O)N[C@@H](Cc1c[nH]c2ccccc12)C(=O)NCC(=O)N[C@@H](CCCCN)C(=O)N1CCC[C@H]1C(=O)N[C@H](C(N)=O)C(C)C,0.4
4,CCCC[C@H](NC(C)=O)C(=O)N[C@@H](CCC(=O)O)C(=O)N[C@@H](Cc1c[nH]cn1)C(=O)N[C@@H](Cc1ccccc1)C(=O)N[C@@H](CCCN=C(N)N)C(=O)N[C@@H](Cc1c[nH]c2ccccc12)C(=O)NCC(N)=O,0.002
5,CSCC[C@H](NC(C)=O)C(=O)N[C@@H](CCC(=O)O)C(=O)N[C@@H](Cc1c[nH]cn1)C(=O)N[C@@H](Cc1ccccc1)C(=O)N[C@@H](CCCN=C(N)N)C(=O)N[C@@H](Cc1c[nH]c2ccccc12)C(=O)NCC(N)=O,0.0005
6,CC(=O)N[C@@H](Cc1ccccc1)C(=O)N[C@@H](CCCN=C(N)N)C(=O)N[C@@H](Cc1c[nH]c2ccccc12)C(=O)NCC(N)=O (Ac-FRWG-NH2),0
7,CC(=O)N[C@@H](Cc1c[nH]cn1)C(=O)N[C@@H](Cc1ccccc1)C(=O)N[C@@H](CCCN=C(N)N)C(N)=O (Ac-His-Phe-Arg-NH2),0
8,CC(=O)N[C@@H](Cc1c[nH]cn1)C(=O)N[C@@H](Cc1ccccc1)C(N)=O (Ac-His-Phe-NH2),0
9,CC(=O)N[C@@H](CCCCN)C(=O)N1CCC[C@H]1C(=O)N[C@H](C(N)=O)C(C)C (Ac-Lys-Pro-Val-NH2),0
10,CC(=O)N[C@@H](Cc1ccccc1)C(=O)N[C@@H](CCCN=C(N)N)C(N)=O (Ac-Phe-Arg-NH2),0
11,CCCC[C@H](NC(C)=O)C(=O)N[C@@H](CCC(=O)O)C(=O)N[C@@H](Cc1c[nH]cn1)C(=O)N[C@@H](Cc1ccccc1)C(=O)N[C@@H](CCCN=C(N)N)C(=O)N[C@@H](Cc1c[nH]c2ccccc12)C(=O)NCC(=O)N[C@@H](CCCCN)C(N)=O (Ac-[Nle]EHFRWGK-NH2),0.002
12,CCCC[C@H](NC(C)=O)C(=O)N[C@@H](CCC(=O)O)C(=O)N[C@@H](Cc1c[nH]cn1)C(=O)N[C@@H](Cc1ccccc1)C(=O)N[C@@H](CCCN=C(N)N)C(=O)N[C@@H](Cc1c[nH]c2ccccc12)C(=O)NCC(=O)N[C@@H](CCCCN)C(=O)N1CCC[C@H]1C(N)=O (Ac-[Nle]EHFRWGKP-NH2),0.18
13,N=C(N)NCCC[C@H](NC(=O)[C@@H](N)Cc1ccccc1)C(=O)O (H-Phe-Arg-OH),0
14,Ac-EHFRWG-NH2,0.00014
15,Ac-HFRWG-NH2,8e-05
16,Ac-MEHFRWGKP-NH2,0.18

# From ChEMBL document CHEMBL1123651, “alpha-Melanotropin: the minimal active sequence in the frog skin bioassay” (J Med Chem, 1987)
